Earlier results in patent publication US20040116403A1, “Superoxide dismutase mimics for the treatment of ocular disorders and diseases” (priority 2002, published 2004).

Tests used:
IL-6 and MIP-2 = conditions: rat stroke model; administration after induction of cerebral ischemia
[1] = rat stroke model; given either before or after induction of cerebral ischemia

In the case of `CCn1cc[n+](CC)c1C1=C2C=CC3=[N+]2[Mn]24[n]5c1ccc5C(c1n(CC)cc[n+]1CC)=C1C=CC(=[N+]12)C(c1n(CC)cc[n+]1CC)=c1ccc([n]14)=C3c1n(CC)cc[n+]1CC` [Compound 1], the “expression of pro-inflammatory proteins such as IL-6 and MIP-2” value (IL-6 and MIP-2) is listed as “attenuation of the increased expression of pro-inflammatory proteins”.
For `CC[n+]1ccccc1C1=C2C=CC3=[N+]2[Mn]24[n]5c1ccc5C(c1cccc[n+]1CC)=C1C=CC(=[N+]12)C(c1cccc[n+]1CC)=c1ccc([n]14)=C3c1cccc[n+]1CC` [Compound 2], the infarct volume [1] is given as “reduces infarct volume”.
